Measured values reported in patent US20220370381A1 (priority 2016, published 2022).
Where a chain is given by its changes, count along the chain named. Like-named read-outs stand apart in the source and are kept apart here.

Tests used:
serotonin 5-HT1A = molecular target: T1, serotonin 5-HT1A (Rattus norvegicus, UniProt P19327); assay: Competitive radioligand binding assay, serotonin 5-HT1A
T1 construct: serotonin 5-HT1A (rat cerebral cortex); from tissue; host or cells: rat cerebral cortex
T1 sequence (P19327 1-422): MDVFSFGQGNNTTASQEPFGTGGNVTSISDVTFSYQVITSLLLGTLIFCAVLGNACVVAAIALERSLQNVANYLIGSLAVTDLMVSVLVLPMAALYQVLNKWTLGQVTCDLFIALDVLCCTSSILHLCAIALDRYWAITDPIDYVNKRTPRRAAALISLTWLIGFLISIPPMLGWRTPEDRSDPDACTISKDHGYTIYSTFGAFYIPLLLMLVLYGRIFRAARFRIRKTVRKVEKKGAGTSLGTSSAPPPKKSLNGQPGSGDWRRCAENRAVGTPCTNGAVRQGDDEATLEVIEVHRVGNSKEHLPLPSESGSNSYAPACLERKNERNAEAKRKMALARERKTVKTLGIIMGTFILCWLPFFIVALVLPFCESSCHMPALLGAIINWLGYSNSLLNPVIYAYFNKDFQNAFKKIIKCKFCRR

[1] = molecular target: Serotonin 5-HT2B (Human recombinant) (Homo sapiens, UniProt P41595); assay: Competitive radioligand binding assay, serotonin 5-HT2B
Chain of Serotonin 5-HT2B (Human recombinant) (P41595 whole entry): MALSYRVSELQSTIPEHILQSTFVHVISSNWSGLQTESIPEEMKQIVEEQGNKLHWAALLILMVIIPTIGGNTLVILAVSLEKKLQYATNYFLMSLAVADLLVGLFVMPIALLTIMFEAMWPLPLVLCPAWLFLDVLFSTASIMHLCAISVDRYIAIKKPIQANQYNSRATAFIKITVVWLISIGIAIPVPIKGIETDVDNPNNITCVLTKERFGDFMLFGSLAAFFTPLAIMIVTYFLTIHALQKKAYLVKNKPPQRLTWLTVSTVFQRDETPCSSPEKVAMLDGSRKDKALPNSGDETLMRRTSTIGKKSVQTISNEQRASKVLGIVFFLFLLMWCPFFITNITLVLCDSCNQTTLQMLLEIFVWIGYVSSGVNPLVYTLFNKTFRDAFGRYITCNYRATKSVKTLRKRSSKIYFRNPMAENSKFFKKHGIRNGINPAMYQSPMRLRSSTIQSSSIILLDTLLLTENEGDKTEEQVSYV

Sigma 1 [2] = molecular target: T2, Sigma 1 (Cavia porcellus, UniProt Q60492); assay: Sigma-1 receptor tissue bioassay, guinea pig vas deferens, agonist activity (twitch contraction); design: Segments of guinea pig vas deferens were suspended in 20-ml organ baths; from tissue; host or cells: guinea pig vas deferens; settings: field-stimulated guinea pig vas deferens, compound alone
T2 sequence (Q60492 whole entry): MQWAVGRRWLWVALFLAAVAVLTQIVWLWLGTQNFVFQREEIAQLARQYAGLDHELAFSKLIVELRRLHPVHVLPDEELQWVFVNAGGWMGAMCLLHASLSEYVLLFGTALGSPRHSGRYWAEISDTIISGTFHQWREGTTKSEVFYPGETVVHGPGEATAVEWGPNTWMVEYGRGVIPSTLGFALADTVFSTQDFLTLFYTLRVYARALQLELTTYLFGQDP

[3] = molecular target: T3, Human muscarinic M1 receptor (Homo sapiens, UniProt P11229); type: cell-based; settings: acetylcholine-induced Ca2+ mobilization, CHO cells
T3 construct: expressed in transfected cells; host or cells: CHO
T3 sequence (P11229 1-460): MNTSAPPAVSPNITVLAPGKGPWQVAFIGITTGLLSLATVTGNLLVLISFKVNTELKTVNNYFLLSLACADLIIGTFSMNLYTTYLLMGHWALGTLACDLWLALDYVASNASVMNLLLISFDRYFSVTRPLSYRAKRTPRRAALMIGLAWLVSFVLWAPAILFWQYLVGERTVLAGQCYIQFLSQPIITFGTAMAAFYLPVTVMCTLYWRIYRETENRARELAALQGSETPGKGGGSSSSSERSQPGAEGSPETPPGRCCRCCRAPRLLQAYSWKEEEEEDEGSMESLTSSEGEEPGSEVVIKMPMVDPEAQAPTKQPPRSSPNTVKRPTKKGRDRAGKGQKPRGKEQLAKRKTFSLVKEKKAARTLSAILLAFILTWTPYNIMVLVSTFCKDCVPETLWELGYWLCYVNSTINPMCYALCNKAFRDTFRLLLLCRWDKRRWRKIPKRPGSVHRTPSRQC
Description: After plating, a fluorescent probe (Fluo4 NW, Invitrogen), mixed with probenicid in HBSS buffer (Invitrogen) complemented with 20 mM Hepes (Invitrogen) (pH 7.4), was added into each well and equilibrated with the cells for 60 min at 37° C., followed by a second incubation for 15 min at 22° C.
Thereafter, the assay plates were positioned in a microplate reader (CellLux, PerkinElmer). After a 5-min incubation, 3 nM acetylcholine was added to all except the basal control wells to a total reaction volume of 100 uL, and changes in fluorescence intensity which vary proportionally to the free cytosolic Ca2+ ion concentration, were measured.
The stock solutions were then diluted to [10×] in HBSS and 0.1% BSA just prior to use. Maximum tolerable DMSO concentration was 0.3%.

[4] = molecular target: T4, human β-2 adrenergic receptor (Homo sapiens, UniProt P07550); assay: β-2 adrenergic receptor antagonist assay, agonist-induced cAMP production (HTRF); type: cell-based; design: expressed in transfected cells; host or cells: HEK-293; settings: inhibition of isoproterenol-induced cAMP production
T4 sequence (P07550 whole entry): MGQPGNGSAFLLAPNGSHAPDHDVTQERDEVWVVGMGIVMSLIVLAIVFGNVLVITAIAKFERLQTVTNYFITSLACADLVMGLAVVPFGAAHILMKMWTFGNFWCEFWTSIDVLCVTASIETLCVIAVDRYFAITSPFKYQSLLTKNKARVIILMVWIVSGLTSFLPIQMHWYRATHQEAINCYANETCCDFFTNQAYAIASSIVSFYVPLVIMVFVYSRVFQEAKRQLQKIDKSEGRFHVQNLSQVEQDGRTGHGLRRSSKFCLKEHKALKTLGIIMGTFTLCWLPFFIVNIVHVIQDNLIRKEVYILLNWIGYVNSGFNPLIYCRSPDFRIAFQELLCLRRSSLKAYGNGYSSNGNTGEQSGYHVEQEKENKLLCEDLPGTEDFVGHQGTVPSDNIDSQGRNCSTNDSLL
Description: Transfected HEK-293 cells expressing human β-1 adrenergic receptor, human β-2 adrenergic receptor, and human β3 adrenergic receptor, respectively, were prepared using cloned human cDNA. See H FRIELLE, T., COLLINS, S., DANIEL, K. W., CARON, M. G., LEFKOWITZ, R. J., KOBILKA, B. K. (1987), Cloning of the cDNA for the human beta1-adrenergic receptor, Proc. Natl. Acad. Sci. U.S.A., 84,7920, and BAKER, J. G. (2005) The selectivity of Beta-adrenoreceptor antagonists at the human Beta1, Beta2 and Beta3 adrenoreceptor, Brit.
Transfected cells were suspended in HBSS buffer (Invitrogen) complemented with 20 mM HEPES (pH 7.4) and 500 μM IBMX. […] The cells were then distributed in 96 well microplates (see FIG. 15 for plating densities).
After plating, the cells were induced by adding reference agonist. See FIG. 15 for reference agonists and concentrations used for each assay. […] The cells were then incubated 30 minutes at room temperature.
Subsequently, the cells were lysed and a fluorescence acceptor (D2-labeled cAMP) and a fluorescence donor (anti-cAMP antibody labeled with europium cryptate) were added to the wells.
Standard reference antagonists were tested in each experiment at several concentrations to generate a concentration-response curve from which its IC50 value is calculated.
EC50 values (concentration producing a half-maximal response) and IC50 values (concentration causing a half-maximal inhibition of the control agonist response) were determined by non-linear regression analysis of the concentration-response curves generated with mean replicate values using Hill equation curve fitting: […]
For the antagonists, the apparent dissociation constants (KB) were calculated using the modified Cheng Prusoff equation:
KB=IC50/[1+(A/EC50A)], where

Swiss OF-1 mice [5] = settings: female BKTO mice, O'Neill & Conway (2001); cited from earlier work
rats = settings: cited from earlier work
Swiss OF-1 mice [6] = assay: Forced swim test (FST) in mice; settings: acute IP injection, lower doses not active
[7] = molecular target: Serotonin 5-HT7 (Human recombinant) (Homo sapiens, UniProt P34969); assay: Competitive radioligand binding assay, serotonin 5-HT7
Chain of Serotonin 5-HT7 (Human recombinant) (P34969 whole entry): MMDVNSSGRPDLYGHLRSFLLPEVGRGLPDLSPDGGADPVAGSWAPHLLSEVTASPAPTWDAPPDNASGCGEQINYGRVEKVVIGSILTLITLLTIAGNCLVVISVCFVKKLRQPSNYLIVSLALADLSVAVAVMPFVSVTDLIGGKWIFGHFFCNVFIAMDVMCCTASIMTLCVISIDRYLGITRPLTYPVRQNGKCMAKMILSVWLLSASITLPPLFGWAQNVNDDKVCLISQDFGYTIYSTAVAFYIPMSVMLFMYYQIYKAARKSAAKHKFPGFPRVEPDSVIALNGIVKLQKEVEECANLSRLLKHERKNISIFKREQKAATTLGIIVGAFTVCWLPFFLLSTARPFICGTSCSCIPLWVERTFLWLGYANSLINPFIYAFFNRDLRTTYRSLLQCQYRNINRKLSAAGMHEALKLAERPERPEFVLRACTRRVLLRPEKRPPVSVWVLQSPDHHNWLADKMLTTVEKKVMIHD

Sigma 1 [8] = molecular target: T2, Sigma 1; assay: Competitive radioligand binding assay, Sigma 1; design: species or system Guinea pig
hNav1.5 = hNav1.5 (Homo sapiens, UniProt Q14524); assay: Ion channel profiling, IonFlux HT automated patch clamp, hNav1.5
Chain of hNav1.5 (Q14524 whole entry): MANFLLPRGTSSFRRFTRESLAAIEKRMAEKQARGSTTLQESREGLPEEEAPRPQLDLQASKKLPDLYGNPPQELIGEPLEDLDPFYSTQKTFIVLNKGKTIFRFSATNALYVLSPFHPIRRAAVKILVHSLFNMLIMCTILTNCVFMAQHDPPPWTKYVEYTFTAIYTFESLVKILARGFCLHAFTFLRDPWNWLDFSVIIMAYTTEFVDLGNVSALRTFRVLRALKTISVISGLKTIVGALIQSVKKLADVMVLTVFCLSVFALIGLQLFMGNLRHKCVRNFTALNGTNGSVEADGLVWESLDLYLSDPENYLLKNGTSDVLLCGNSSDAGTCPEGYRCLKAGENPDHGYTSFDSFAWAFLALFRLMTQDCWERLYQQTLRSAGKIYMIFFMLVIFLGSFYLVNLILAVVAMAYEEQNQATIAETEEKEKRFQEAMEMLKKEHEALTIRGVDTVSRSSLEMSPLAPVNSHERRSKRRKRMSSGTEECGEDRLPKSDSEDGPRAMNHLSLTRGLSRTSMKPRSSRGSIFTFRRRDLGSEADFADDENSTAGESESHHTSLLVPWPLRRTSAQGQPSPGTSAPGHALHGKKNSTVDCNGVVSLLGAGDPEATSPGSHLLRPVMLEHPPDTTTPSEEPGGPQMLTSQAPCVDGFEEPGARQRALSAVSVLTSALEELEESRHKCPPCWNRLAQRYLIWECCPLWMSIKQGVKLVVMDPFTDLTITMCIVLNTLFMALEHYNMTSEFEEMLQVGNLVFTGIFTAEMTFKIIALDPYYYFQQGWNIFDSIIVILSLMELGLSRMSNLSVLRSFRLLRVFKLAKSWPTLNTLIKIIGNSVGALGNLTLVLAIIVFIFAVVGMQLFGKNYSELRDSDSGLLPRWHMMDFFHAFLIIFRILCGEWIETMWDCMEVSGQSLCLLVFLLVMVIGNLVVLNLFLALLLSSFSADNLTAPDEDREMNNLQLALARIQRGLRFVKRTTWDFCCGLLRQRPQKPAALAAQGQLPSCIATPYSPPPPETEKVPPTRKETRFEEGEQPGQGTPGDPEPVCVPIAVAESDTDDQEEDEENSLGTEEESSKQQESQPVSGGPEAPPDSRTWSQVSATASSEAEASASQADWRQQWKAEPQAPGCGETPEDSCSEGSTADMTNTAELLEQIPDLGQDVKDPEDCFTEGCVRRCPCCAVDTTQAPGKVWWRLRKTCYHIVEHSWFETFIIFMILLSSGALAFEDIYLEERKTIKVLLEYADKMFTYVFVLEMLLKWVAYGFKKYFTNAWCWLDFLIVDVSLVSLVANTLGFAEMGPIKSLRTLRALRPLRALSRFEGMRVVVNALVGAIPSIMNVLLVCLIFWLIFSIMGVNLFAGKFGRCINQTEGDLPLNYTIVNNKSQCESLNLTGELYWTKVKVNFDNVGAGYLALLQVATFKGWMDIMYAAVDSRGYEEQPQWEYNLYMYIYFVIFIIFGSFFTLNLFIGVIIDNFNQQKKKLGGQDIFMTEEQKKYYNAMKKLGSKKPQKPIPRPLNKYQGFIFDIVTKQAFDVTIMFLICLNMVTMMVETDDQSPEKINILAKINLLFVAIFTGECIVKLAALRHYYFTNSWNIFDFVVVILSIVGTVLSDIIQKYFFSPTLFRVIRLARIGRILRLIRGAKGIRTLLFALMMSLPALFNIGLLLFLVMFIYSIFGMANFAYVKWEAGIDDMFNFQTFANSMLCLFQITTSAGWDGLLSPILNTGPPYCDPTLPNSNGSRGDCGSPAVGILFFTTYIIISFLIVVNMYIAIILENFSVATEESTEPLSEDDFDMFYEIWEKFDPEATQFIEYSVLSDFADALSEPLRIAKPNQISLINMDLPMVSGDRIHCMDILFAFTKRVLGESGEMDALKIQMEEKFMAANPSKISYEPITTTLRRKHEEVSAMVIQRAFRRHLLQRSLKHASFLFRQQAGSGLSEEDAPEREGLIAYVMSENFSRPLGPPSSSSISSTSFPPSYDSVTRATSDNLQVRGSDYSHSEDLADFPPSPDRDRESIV

Swiss OF-1 mice [9] = assay: Spontaneous alternation in the Y-maze, dizocilpine-induced deficit; type: in vivo, mouse; settings: IP; 0.1 mg/kg not active
Swiss OF-1 mice [10] = assay: Step-through passive avoidance, dizocilpine-induced deficit; type: in vivo, mouse; settings: IP; 0.1 mg/kg not active
DBA/1 mice = settings: comparator value, no test described; cited from earlier work
[11] = tested on: T5, β-Adrenergic (Non-selective); assay: Competitive radioligand binding assay, β-adrenergic (non-selective); design: species or system Rat
T5 construct: β-1 adrenergic; other: test article 1×10^−6 and 1×10^−5 mol/L; rat brain

[12] = molecular target: T4, human β-2 adrenergic receptor; assay: Competitive radioligand binding assay, β2-adrenergic
Muscarinic M1 = molecular target: T6, Muscarinic M1 (Rattus norvegicus, UniProt P08482); assay: Competitive radioligand binding assay, muscarinic M1
T6 construct: Muscarinic M1 (Rat cerebral cortex); from tissue; host or cells: rat cerebral cortex
T6 sequence (P08482 1-460): T3 sequence (P11229 1-460) with A5V, T254S, P309S, R320K, A337G, I413V

Na channel = tested on: T7, Na channel; assay: Competitive radioligand binding assay, Na channel; design: species or system Rat
T7 construct: other: test article 1×10^−6 and 1×10^−5 mol/L; rat brain

Sigma non-selective = assay: Competitive radioligand binding assay, sigma non-selective; design: species or system Guinea pig
Sigma 1 [13] = molecular target: T2, Sigma 1; assay: Sigma-1 receptor tissue bioassay, guinea pig vas deferens, antagonist activity ((+)SKF-10047-induced response); design: Segments of guinea pig vas deferens were suspended in 20-ml organ baths; from tissue; host or cells: guinea pig vas deferens; settings: field-stimulated guinea pig vas deferens, (+)SKF-10047 100 μM
[14] = Example 3, Ki=IC50/(1+L/Kd), IC50 expressed in mol/L, read-out: Ki, 5-HT1A
[15] = test article 1×10^−6 and 1×10^−5 mol/L, rat brain
[16] = Example 2, seven concentrations
[17] = test article 1×10^−6 and 1×10^−5 mol/L, rat cerebral cortex

SMILES: CC(N)Cc1cccc(C(F)(F)F)c1 (single isomer, unassigned; (+)) [(+)norfenfluramine]
- Ki (serotonin 5-HT1A; [14]): 1140 nM
- Ki [1]: 242 nM
- effect on twitch contraction amplitude (Sigma 1 [2]): concentration-dependent decrease

SMILES: CC(N)Cc1cccc(C(F)(F)F)c1 (single isomer, unassigned; (-)) [(−)norfenfluramine]
- Ki (serotonin 5-HT1A; [14]): 409 nM
- Ki [1]: 1200 nM
- antagonist activity at the muscarinic M1 receptor [3]: some antagonist activity
- antagonist activity at the beta-2 adrenergic receptor [4]: antagonist activity
- effect on twitch contraction amplitude (Sigma 1 [2]): more complex behavior

SMILES: CCN[C@@H](C)Cc1cccc(C(F)(F)F)c1 [(+)fenfluramine]
- antagonist activity at the beta-2 adrenergic receptor [4]: antagonist activity

SMILES: Br.CCCN(CCC)C1CCc2cccc(O)c2C1 (centres unmarked) [Compound 8-OH-DPAT, 7-(Dipropylamino)-5,6,7,8-tetrahydronaphthalen-1-ol hydrobromide]
- active dose in forced swim test published previously (Swiss OF-1 mice [5]): 0.25 to 1 mg/kg
- active dose in forced swim test published previously (rats; male CD-COBS rats, Cervo & Samanin (1987)): 0.25 to 0.5 mg/kg
- active dose in forced swim test published previously (rats; male Sprague-Dawley rats, Singh & Lucki (1993)): 0.5 mg/kg
- dose reducing immobility duration in the FST (Swiss OF-1 mice [6]): 3 mg/kg

SMILES: CCN[C@@H](C)Cc1cccc(C(F)(F)F)c1 [Dexfenfluramine]
- IC50 (serotonin 5-HT1A): 1290 nM
- Ki (serotonin 5-HT1A): 711 nM
- IC50 [7]: 7520 nM
- Ki [7]: 7100 nM
- IC50 (Sigma 1 [8]): 125 nM
- Ki (Sigma 1 [8]): 109 nM
- IC50 (hNav1.5): > 30000 nM

SMILES: CC[C@@](C/C=C/c1ccccc1)(c1ccccc1)N(C)CC1CC1.Cl [Igmesine, (R)-(+)-N-Cyclopropylmethyl-α-ethyl-N-methyl-α-[(2E)-3-phenyl-2-propenyl)benzenemethanamine hydrochloride]
- dose reducing immobility duration in the FST (Swiss OF-1 mice [6]): 30 mg/kg

SMILES: Cl.O=C(OCCN1CCOCC1)C1(c2ccccc2)CCCCC1 [PRE-084, 2-(4-Morpholinethyl)-1-phenylcyclohexanecarboxylate hydrochloride]
- dose attenuating dizocilpine-induced deficit in spontaneous alternation (Swiss OF-1 mice [9]): 0.3 mg/kg
- dose attenuating dizocilpine-induced deficit in passive avoidance response (minimal active dose) (Swiss OF-1 mice [10]): 0.3 mg/kg

SMILES: CNCCC(Oc1ccc(C(F)(F)F)cc1)c1ccccc1 (centres unmarked) [fluoxetine]
- ED50, blockade of S-IRA (comparison value) (DBA/1 mice): 22.2 mg/kg

SMILES: CC(N)Cc1cccc(C(F)(F)F)c1 (centres unmarked) [norfenfluramine]
- binding relative to positive controls ([11]; Example 2, seven concentrations, β-1 adrenergic): moderate binding
- inhibition of receptor binding (tracer) [11, 15]: significantly inhibit
- binding relative to positive controls [12, 16]: moderate binding
- inhibition of receptor binding (tracer) ([12]; test article 1×10^−6 and 1×10^−5 mol/L, human recombinant): significantly inhibit
- binding relative to positive controls (Muscarinic M1; [16]): moderate binding
- inhibition of receptor binding (tracer) (Muscarinic M1; [17]): significantly inhibit
- binding relative to positive controls (Na channel; [16]): moderate binding
- inhibition of receptor binding (tracer) (Na channel; [15]): significantly inhibit
- binding relative to positive controls (serotonin 5-HT1A; [16]): moderate binding
- inhibition of receptor binding (tracer) (serotonin 5-HT1A; [17]): significantly inhibit
- binding relative to positive controls (Sigma non-selective; [16]): moderate binding
- inhibition of receptor binding (tracer) (Sigma non-selective; test article 1×10^−6 and 1×10^−5 mol/L, guinea pig brain): significantly inhibit
- antagonist activity at the beta-2 adrenergic receptor [4]: some antagonist activity
- activity at the Nav1.5 ion channel (hNav1.5; patch clamp, 0.37-30 μM): weak antagonist
- effect on twitch contraction amplitude (Sigma 1 [2]; listed as Racemic norfenfluramine): concentration-dependent decrease
- effect on the (+)SKF-10,047-induced increase in twitch contraction amplitude (Sigma 1 [13]): concentration-dependent inhibition

SMILES: C[C@@H]1CN(CCCn2c3ccccc3c3ccccc32)C[C@H](C)N1 [rimcazole]
- effect on the (+)SKF-10,047-induced increase in twitch contraction amplitude (Sigma 1 [13]): inhibited
